# Experimental data published in US20150344457A1, “METHODS OF INHIBITING PRMT5” (EPIZYME, INC., priority 2012, published 2015).
# pEC50: −log10 of the molar value.
# How the values were obtained:
# [1] = test system: Z-138 cells; assay: Z-138 Proliferation Assay (Cell Titer Glo, 5 days); assay type: cell-based; details: Homo sapiens, 120 h, Table A-2, 5 days, top concentration 20 μM
# In short: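 Exponentially growing Z-138 cells (10,000 cells/ml) in RPMI 1640 with 10% FBS are exposed to nine-point 3-fold dilutions (final top concentration 20 μM, 0.2% DMSO) for 5 days at 37° C. Viability is measured as ATP by CellTiter-Glo luminescence. The 50% inhibitory concentration comes from a 4-parameter fit.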
# [2] = test system: Z-138 cells; assay: Z-138 Methylation Assay (In Cell Western for symmetric di-methyl arginine and DNA content); assay type: cell-based; details: Homo sapiens, Table A-2, 96 hours, symmetric di-methyl arginine, read-out: ICW EC50
# From the text: Z-138 suspension cells were purchased from ATCC (American Type Culture Collection, Manassas, Va.). RPMI/Glutamax medium, penicillin-streptomycin, heat inactivated fetal bovine serum, and D-PBS were purchased from Life Technologies, Grand Island, N.Y., USA. Odyssey blocking buffer, 800CW goat anti-rabbit IgG (H+L) antibody, and Licor Odyssey infrared scanner were purchased from Licor Biosciences, Lincoln, Nebr., USA. Symmetric di-methyl arginine antibody was purchased from EMD Millipore, Billerica, Mass., USA. 16% Paraformaldehyde was purchased from Electron Microscopy Sciences, Hatfield, Pa., USA.
# Z-138 suspension cells were maintained in growth medium (RPMI 1640 supplemented with 10% v/v heat inactivated fetal bovine serum and 100 units/mL penicillin-streptomycin) and cultured at 37° C. under 5% CO2.
# Cell Treatment, in Cell Western (ICW) for Detection of Symmetric Di-Methyl Arginine and DNA Content.
# Z-138 cells were seeded in assay medium at a concentration of 50,000 cells per mL to a 384-well cell culture plate with 50 μL per well. Compound (100 nL) from 384 well source plates was added directly to 384 well cell plate. Plates were incubated at 37° C., 5% CO2 for 96 hours. After four days of incubation, 40 μL of cells from incubated plates were added to poly-D-lysine coated 384 well culture plates (BD Biosciences 356697). Plates were incubated at room temperature for 30 minutes then incubated at 37° C., 5% CO2 for 5 hours. After the incubation, 40 μL per well of 8% paraformaldehyde in PBS (16% paraformaldahyde was diluted to 8% in PBS) was added to each plate and incubated for 30 minutes. Plates were transferred to a Biotek 405 plate washer and washed 5 times with 100 μL per well of wash buffer (1×PBS with 0.1% Triton X-100 (v/v)). Next 30 μL per well of Odyssey blocking buffer were added to each plate and incubated 1 hour at room temperature. Blocking buffer was removed and 20 μL per well of primary antibody was added (symmetric di-methyl arginine diluted 1:100 in Odyssey buffer with 0.1% Tween 20 (v/v)) and plates were incubated overnight (16 hours) at 4° C. Plates were washed 5 times with 100 μL per well of wash buffer. Next 20 μL per well of secondary antibody was added (1:200 800CW goat anti-rabbit IgG (H+L) antibody, 1:1000 DRAQS (Biostatus limited) in Odyssey buffer with 0.1% Tween 20 (v/v)) and incubated for 1 hour at room temperature. The plates were washed 5 times with 100 μL per well wash buffer then 1 time with 100 μL per well of water. Plates were allowed to dry at room temperature then imaged on the Licor Odyssey machine which measures integrated intensity at 700 nm and 800 nm wavelengths. Both 700 and 800 channels were scanned.
# First, the ratio for each well was determined by:
# Each plate included fourteen control wells of DMSO only treatment (minimum inhibition) as well as fourteen control wells for maximum inhibition treated with 3 μM of a reference compound (Background wells). The average of the ratio values for each control type was calculated and used to determine the percent inhibition for each test well in the plate. Reference compound was serially diluted three-fold in DMSO for a total of nine test concentrations, beginning at 3 μM. Percent inhibition was determined and IC50 curves were generated using triplicate wells per concentration of compound.
SMILES,pEC50 [2],pEC50 [1]
O=C(COc1ccccc1F)NCC(O)CN1CCc2ccccc2C1 (centres unmarked) [Compound A16],6.00 to 7.00,4.30 to 5.00
O=C(COc1ccccc1C1CCCCC1)NCC(O)CN1CCc2ccccc2C1 (centres unmarked) [Compound A40],6.00 to 7.00,5.00 to 6.00
COc1ccccc1OCC(=O)NCC(O)CN1CCc2ccccc2C1 (centres unmarked) [Compound A22],6.00 to 7.00,5.00 to 6.00
CC(=O)Nc1ccccc1OCC(=O)NCC(O)CN1CCc2ccccc2C1 (centres unmarked) [Compound A36],6.00 to 7.00,< 4.70
CN(C)c1cccc(OCC(=O)NCC(O)CN2CCc3ccccc3C2)c1 (centres unmarked) [Compound A27],6.00 to 7.00,5.00 to 6.00
O=C(COc1cccc(F)c1)NCC(O)CN1CCc2ccccc2C1 (centres unmarked) [Compound A7],6.00 to 7.00,4.30 to 5.00
CC(Oc1cccc2cccnc12)C(=O)NCC(O)CN1CCc2ccccc2C1 (centres unmarked) [Compound A39],> 7.00,6.00 to 7.00
O=C(COc1cccc2cccnc12)NC[C@@H](O)CN1CCc2ccccc2C1 [Compound A45],> 7.00,6.00 to 7.00
N#Cc1cccc(OCC(=O)NCC(O)CN2CCc3ccccc3C2)c1 (centres unmarked) [Compound A8],6.00 to 7.00,4.30 to 5.00
CS(=O)(=O)Nc1ccc(OCC(=O)NCC(O)CN2CCc3ccccc3C2)cc1 (centres unmarked) [Compound A42],6.00 to 7.00,< 4.70
O=C(COc1cccc2cccnc12)NCC(O)CN1CCc2ccccc2C1 (centres unmarked) [Compound A6],> 7.00,6.00 to 7.00
Cc1ccccc1OCC(=O)NCC(O)CN1CCc2ccccc2C1 (centres unmarked) [Compound A15],6.00 to 7.00,5.00 to 6.00
CC(=O)Nc1cccc(OCC(=O)NCC(O)CN2CCc3ccccc3C2)c1 (centres unmarked) [Compound A31],6.00 to 7.00,4.30 to 5.00
CS(=O)(=O)c1ccccc1OCC(=O)NCC(O)CN1CCc2ccccc2C1 (centres unmarked) [Compound A37],> 7.00,5.00 to 6.00
O=C(COc1ccccc1N1CCOCC1)NCC(O)CN1CCc2ccccc2C1 (centres unmarked) [Compound A49],6.00 to 7.00,5.00 to 6.00
O=C(CNc1ccccc1)NCC(O)CN1CCc2ccccc2C1 (centres unmarked) [Compound A18],5.00 to 6.00,< 4.70
Cc1ccc(OCC(=O)NCC(O)CN2CCc3ccccc3C2)cc1 (centres unmarked) [Compound A9],4.30 to 5.00,4.30 to 5.00
Cn1ncc2ccc(OCC(=O)NCC(O)CN3CCc4ccccc4C3)cc21 (centres unmarked) [Compound A23],6.00 to 7.00,5.00 to 6.00
O=C(COc1ccccc1)NC[C@H](O)CN1CCc2ccccc2C1 [Compound A32],6.00 to 7.00,4.30 to 5.00
O=C(COc1cccc2c1CCCC2)NCC(O)CN1CCc2ccccc2C1 (centres unmarked) [Compound A64],6.00 to 7.00,5.00 to 6.00
Cn1cnc2cc(OCC(=O)NCC(O)CN3CCc4ccccc4C3)ccc21 (centres unmarked) [Compound A46],6.00 to 7.00,4.30 to 5.00

# Now from value to compound, other results behind:
pEC50 [2],SMILES,pEC50 [1]
6.00 to 7.00,O=C(COc1ccc2ncn(C3CCNCC3)c2c1)NCC(O)CN1CCc2ccccc2C1 (centres unmarked) [Compound A70],< 4.70
5.00 to 6.00,CC(Oc1ccccc1S(C)(=O)=O)C(=O)NCC(O)CN1CCc2ccccc2C1 (centres unmarked) [Compound A114],< 4.70
> 7.00,CN(C)S(=O)(=O)c1ccccc1OCC(=O)NCC(O)CN1CCc2ccccc2C1 (centres unmarked) [Compound A109],6.00 to 7.00
5.00 to 6.00,CN(C)c1ccc2cccc(OCC(=O)NC[C@H](O)CN3CCc4ccccc4C3)c2n1 [Compound A104],< 4.70
6.00 to 7.00,CN1CCCC(c2ccccc2OCC(=O)NCC(O)CN2CCc3ccccc3C2)C1 (centres unmarked) [Compound A130],5.00 to 6.00
5.00 to 6.00,O=C(COc1cccc2c1OCC(=O)N2)NCC(O)CN1CCc2ccccc2C1 (centres unmarked) [Compound A124],< 4.70
6.00 to 7.00,CN1CCC(n2cnc3ccc(OCC(=O)NCC(O)CN4CCc5ccccc5C4)cc32)CC1 (centres unmarked) [Compound A71],< 4.70
> 7.00,CS(=O)(=O)N1CCc2c(cccc2OCC(=O)NCC(O)CN2CCc3ccccc3C2)C1 (centres unmarked) [Compound A102],5.00 to 6.00
5.00 to 6.00,CN(C)c1ncccc1OCC(=O)NCC(O)CN1CCc2ccccc2C1 (centres unmarked) [Compound A127],< 4.70
6.00 to 7.00,NS(=O)(=O)c1ccccc1OCC(=O)NCC(O)CN1CCc2ccccc2C1 (centres unmarked) [Compound A65],5.00 to 6.00
5.00 to 6.00,Cn1cc2c(OCC(=O)NCC(O)CN3CCc4ccccc4C3)cccc2n1 (centres unmarked) [Compound A118],< 4.70
5.00 to 6.00,CC(=O)N1CCN(S(=O)(=O)c2ccccc2OCC(=O)NCC(O)CN2CCc3ccccc3C2)CC1 (centres unmarked) [Compound A122],< 4.70
> 7.00,O=C(COc1ccccc1S(=O)(=O)N1CCCC1)NCC(O)CN1CCc2ccccc2C1 (centres unmarked) [Compound A110],6.00 to 7.00
> 7.00,C[C@@H](Oc1cccc2cccnc12)C(=O)NC[C@H](O)CN1CCc2ccccc2C1 [Compound A73],6.00 to 7.00
5.00 to 6.00,O=C(COc1cccc2ncc(=O)[nH]c12)NCC(O)CN1CCc2ccccc2C1 (centres unmarked) [Compound A129],< 4.70
6.00 to 7.00,CN1CCc2c(cccc2OCC(=O)NCC(O)CN2CCc3ccccc3C2)C1 (centres unmarked) [Compound A99],5.00 to 6.00
> 7.00,O=C(COc1ccccc1S(=O)(=O)N1CCNCC1)NCC(O)CN1CCc2ccccc2C1 (centres unmarked) [Compound A107],5.00 to 6.00
> 7.00,O=C(COc1cccc2c1OCCO2)NCC(O)CN1CCc2ccccc2C1 (centres unmarked) [Compound A100],5.00 to 6.00
> 7.00,COc1ccc2cccc(OCC(=O)NC[C@@H](O)CN3CCc4ccccc4C3)c2n1 [Compound A98],5.00 to 6.00
> 7.00,CC(=O)N1CCc2c(cccc2OCC(=O)NCC(O)CN2CCc3ccccc3C2)C1 (centres unmarked) [Compound A101],5.00 to 6.00
6.00 to 7.00,C[C@@H](Oc1cccc2cccnc12)C(=O)NC[C@@H](O)CN1CCc2ccccc2C1 [Compound A74],5.00 to 6.00
5.00 to 6.00,CN1CCc2cccc(OCC(=O)NCC(O)CN3CCc4ccccc4C3)c2C1 (centres unmarked) [Compound A120],< 4.70
6.00 to 7.00,COc1ccc2cccc(OCC(=O)NC[C@H](O)CN3CCc4ccccc4C3)c2n1 [Compound A97],5.00 to 6.00
6.00 to 7.00,O=C(COc1ccccc1C1CCNCC1)NCC(O)CN1CCc2ccccc2C1 (centres unmarked) [Compound A103],< 4.70
6.00 to 7.00,CNC(=O)c1ccccc1OCC(=O)NCC(O)CN1CCc2ccccc2C1 (centres unmarked) [Compound A112],< 4.70
